Measurements as given in ChEMBL document CHEMBL6109078, “Pyrylium derivatives as outer membrane permeabilizers against MDR gram-negative bacteria via multi-target mode of action” (Eur J Med Chem, 2025).
Active and inactive are the calls of the source. The rule behind the calls is not given here.

What was measured:
Acinetobacter baumannii [1] = assay: Synergistic antibacterial activity against multi-drug resistant Acinetobacter baumannii clinical isolate 5 assessed as fractional inhibitory concentration index in presence of polymyxin B by checkerboard assay; type: functional
Acinetobacter baumannii [2] = assay: Synergistic antibacterial activity against multi-drug resistant Acinetobacter baumannii clinical isolate 43 assessed as fractional inhibitory concentration index in presence of gentamycin by checkerboard assay; type: functional
Acinetobacter baumannii [3] = assay: Synergistic antibacterial activity against Acinetobacter baumannii ATCC 19606 assessed as fractional inhibitory concentration index in presence of amikacin by checkerboard assay; type: functional
Escherichia coli [4] = assay: Synergistic antibacterial activity against Escherichia coli ATCC 35218 assessed as fractional inhibitory concentration index in presence of polymyxin B by checkerboard assay; type: functional
Acinetobacter baumannii [5] = assay: Synergistic antibacterial activity against multi-drug resistant Acinetobacter baumannii clinical isolate 14 assessed as fractional inhibitory concentration index in presence of amikacin by checkerboard assay; type: functional
Acinetobacter baumannii [6] = assay: Synergistic antibacterial activity against multi-drug resistant Acinetobacter baumannii clinical isolate 5 assessed as inhibition of bacterial growth in presence of polymyxin B by checkerboard assay; type: functional
Acinetobacter baumannii [7] = assay: Antibacterial activity against multi-drug resistant Acinetobacter baumannii clinical isolate 43 assessed as inhibition of bacterial growth by CLSI protocol based method; type: functional
Pseudomonas aeruginosa [8] = assay: Antibacterial activity Pseudomonas aeruginosa PAO1 assessed as inhibition of bacterial growth by CLSI protocol based method; type: functional
Acinetobacter baumannii [9] = assay: Antibacterial activity against Acinetobacter baumannii ATCC 19606 assessed as inhibition of bacterial growth by measuring decrease in bacterial count at 6.25 to 50 microg/ml measured after 12 hrs by time-kill kinetics analysis; type: functional; conditions: dose 6.25-50 µg/ml
Escherichia coli [10] = assay: Synergistic antibacterial activity against Escherichia coli ATCC 35218 assessed as inhibition of bacterial growth in presence of polymyxin B by checkerboard assay; type: functional
Escherichia coli [11] = assay: Synergistic antibacterial activity against multi-drug resistant Escherichia coli clinical isolate 1 assessed as fractional inhibitory concentration index in presence of gentamycin by checkerboard assay; type: functional
Escherichia coli [12] = assay: Synergistic antibacterial activity against Escherichia coli ATCC 25922 assessed as fractional inhibitory concentration index in presence of amikacin by checkerboard assay; type: functional
Escherichia coli [13] = assay: Antibacterial activity against ESBL positive Escherichia coli ATCC 35218 assessed as inhibition of bacterial growth by CLSI protocol based method; type: functional
Escherichia coli [14] = assay: Synergistic antibacterial activity against Escherichia coli CG-4 expressing MCR-1 and NDM-1 assessed as fractional inhibitory concentration index in presence of polymyxin B by checkerboard assay; type: functional
Acinetobacter baumannii [15] = assay: Synergistic antibacterial activity against multi-drug resistant Acinetobacter baumannii clinical isolate 1 assessed as inhibition of bacterial growth by measuring polymyxin B MIC by checkerboard assay; type: functional
Escherichia coli [16] = assay: Synergistic antibacterial activity against Escherichia coli CG-4 expressing MCR-1 and NDM-1 assessed as inhibition of bacterial growth in presence of polymyxin B by checkerboard assay; type: functional
Acinetobacter baumannii [17] = assay: Synergistic antibacterial activity against Acinetobacter baumannii ATCC 19606 assessed as fractional inhibitory concentration index in presence of gentamycin by checkerboard assay; type: functional
Acinetobacter baumannii [18] = assay: Synergistic antibacterial activity against multi-drug resistant Acinetobacter baumannii clinical isolate 14 assessed as inhibition of bacterial growth in presence of polymyxin B by checkerboard assay; type: functional
Escherichia coli [19] = assay: Synergistic antibacterial activity against Escherichia coli CG-4 expressing MCR-1 and NDM-1 assessed as fractional inhibitory concentration index in presence of gentamycin by checkerboard assay; type: functional
Pseudomonas aeruginosa [20] = assay: Synergistic antibacterial activity against Pseudomonas aeruginosa assessed as inhibition of bacterial growth in presence of polymyxin B by checkerboard assay; type: functional, organism-based
Escherichia coli [21] = assay: Synergistic antibacterial activity against Escherichia coli ATCC 25922 assessed as inhibition of bacterial growth by measuring polymyxin B MIC by checkerboard assay; type: functional
Acinetobacter baumannii [22] = assay: Synergistic antibacterial activity against multi-drug resistant Acinetobacter baumannii clinical isolate 1 assessed as fractional inhibitory concentration index in presence of gentamycin by checkerboard assay; type: functional
Acinetobacter baumannii [23] = assay: Synergistic antibacterial activity against Acinetobacter baumannii ATCC 19606 assessed as inhibition of bacterial growth in presence of polymyxin B by checkerboard assay; type: functional
Acinetobacter baumannii [24] = assay: Synergistic antibacterial activity against multi-drug resistant Acinetobacter baumannii clinical isolate 1 assessed as fractional inhibitory concentration index in presence of amikacin by checkerboard assay; type: functional
Escherichia coli [25] = assay: Synergistic antibacterial activity against Escherichia coli CG-4 expressing MCR-1 and NDM-1 assessed as fractional inhibitory concentration index in presence of […] by checkerboard assay; type: functional
Acinetobacter baumannii [26] = assay: Antibacterial activity against multi-drug resistant Acinetobacter baumannii clinical isolate 14 assessed as inhibition of bacterial growth by CLSI protocol based method; type: functional
Escherichia coli [27] = assay: Synergistic antibacterial activity against Escherichia coli ATCC 35218 assessed as fractional inhibitory concentration index in presence of amikacin by checkerboard assay; type: functional
Acinetobacter baumannii [28] = assay: Synergistic antibacterial activity against multi-drug resistant Acinetobacter baumannii clinical isolate 43 assessed as inhibition of bacterial growth by measuring polymyxin B MIC by checkerboard assay; type: functional
Escherichia coli [29] = assay: Synergistic antibacterial activity against Escherichia coli ATCC 35218 assessed as inhibition of bacterial growth by measuring polymyxin B MIC by checkerboard assay; type: functional; conditions: Escherichia coli, ATCC 35218; read-out: MIC
Acinetobacter baumannii [30] = assay: Antibacterial activity against Acinetobacter baumannii ATCC 19606 assessed as inhibition of bacterial growth by CLSI protocol based method; type: functional
Acinetobacter baumannii [31] = assay: Synergistic antibacterial activity against multi-drug resistant Acinetobacter baumannii clinical isolate 43 assessed as fractional inhibitory concentration index in presence of amikacin by checkerboard assay; type: functional
Escherichia coli [32] = assay: Synergistic antibacterial activity against Escherichia coli CG-4 expressing MCR-1 and NDM-1 assessed as inhibition of bacterial growth by measuring polymyxin B MIC by checkerboard assay; type: functional
Escherichia coli [33] = assay: Synergistic antibacterial activity against multi-drug resistant Escherichia coli clinical isolate 1 assessed as inhibition of bacterial growth in presence of polymyxin B by checkerboard assay; type: functional
Acinetobacter baumannii [34] = assay: Synergistic antibacterial activity against multi-drug resistant Acinetobacter baumannii clinical isolate 43 assessed as inhibition of bacterial growth in presence of polymyxin B by checkerboard assay; type: functional
Escherichia coli [35] = assay: Synergistic antibacterial activity against multi-drug resistant Escherichia coli clinical isolate 1 assessed as fractional inhibitory concentration index in presence of amikacin by checkerboard assay; type: functional
Acinetobacter baumannii [36] = assay: Antibacterial activity against multi-drug resistant Acinetobacter baumannii clinical isolate 2 assessed as inhibition of bacterial growth by CLSI protocol based method; type: functional
Acinetobacter baumannii [37] = assay: Synergistic antibacterial activity against multi-drug resistant Acinetobacter baumannii clinical isolate 5 assessed as fractional inhibitory concentration index in presence of gentamycin by checkerboard assay; type: functional
Escherichia coli [38] = assay: Antibacterial activity against multi-drug resistant Escherichia coli clinical isolate 1 assessed as inhibition of bacterial growth by CLSI protocol based method; type: functional
Acinetobacter baumannii [39] = assay: Antibacterial activity against multi-drug resistant Acinetobacter baumannii clinical isolate 10 assessed as inhibition of bacterial growth by CLSI protocol based method; type: functional
Acinetobacter baumannii [40] = assay: Synergistic antibacterial activity against multi-drug resistant Acinetobacter baumannii clinical isolate 5 assessed as inhibition of bacterial growth by measuring polymyxin B MIC by checkerboard assay; type: functional
Escherichia coli [41] = assay: Synergistic antibacterial activity against Escherichia coli ATCC 25922 assessed as fractional inhibitory concentration index in presence of polymyxin B by checkerboard assay; type: functional

CCN(CC)c1ccc(/C=C/c2cc(C(C)(C)C)[o+]c(C(C)(C)C)c2)cc1.O=S(=O)([O-])C(F)(F)F
fractional inhibitory concentration index (FICI) (Acinetobacter baumannii [1]): 0.188
fractional inhibitory concentration index (FICI) (Acinetobacter baumannii [2]): 0.125
fractional inhibitory concentration index (FICI) (Acinetobacter baumannii [3]): 0.125
fractional inhibitory concentration index (FICI) (Escherichia coli [4]): 0.375
fractional inhibitory concentration index (FICI) (Acinetobacter baumannii [5]): 0.125
MIC (Acinetobacter baumannii [6]): 1.56 µg/mL
MIC (Acinetobacter baumannii [7]): 12.5 µg/mL
MIC (Pseudomonas aeruginosa [8]): > 100 µg/mL
Activity (Acinetobacter baumannii [9]): <6 log10CFU/ml
MIC (Escherichia coli [10]): 1.56 µg/mL
fractional inhibitory concentration index (FICI) (Escherichia coli [11]): 0.125
fractional inhibitory concentration index (FICI) (Escherichia coli [12]): 0.125
MIC (Escherichia coli [13]): 6.25 µg/mL
fractional inhibitory concentration index (FICI) (Escherichia coli [14]): 0.375
MIC (Acinetobacter baumannii [15]): 0.2 µg/mL
MIC (Escherichia coli [16]): 3.13 µg/mL
fractional inhibitory concentration index (FICI) (Acinetobacter baumannii [17]): 0.125
MIC (Acinetobacter baumannii [18]): 1.56 µg/mL
fractional inhibitory concentration index (FICI) (Escherichia coli [19]): 0.125
Activity (Pseudomonas aeruginosa [20]): inactive
MIC (Escherichia coli [21]): 7.8 10^-4 ug/ml
fractional inhibitory concentration index (FICI) (Acinetobacter baumannii [22]): 0.125
MIC (Acinetobacter baumannii [23]): 0.78 µg/mL
fractional inhibitory concentration index (FICI) (Acinetobacter baumannii [24]): 0.125
fractional inhibitory concentration index (FICI) (Escherichia coli [25]): 0.125
MIC (Acinetobacter baumannii [26]): 12.5 µg/mL
fractional inhibitory concentration index (FICI) (Escherichia coli [27]): 0.125
MIC (Acinetobacter baumannii [28]): 1 10^-4 ug/ml
MIC (Escherichia coli [29]): 0.013 µg/mL
MIC (Acinetobacter baumannii [30]): 12.5 µg/mL
fractional inhibitory concentration index (FICI) (Acinetobacter baumannii [31]): 0.125
MIC (Escherichia coli [32]): 0.78 µg/mL
MIC (Escherichia coli [33]): 3.12 µg/mL
MIC (Acinetobacter baumannii [34]): 6.25 µg/mL
fractional inhibitory concentration index (FICI) (Escherichia coli [35]): 0.125
MIC (Acinetobacter baumannii [36]): 6.25 µg/mL
fractional inhibitory concentration index (FICI) (Acinetobacter baumannii [37]): 0.125
MIC (Escherichia coli [38]): ≥ 100 µg/mL
MIC (Acinetobacter baumannii [39]): 12.5 µg/mL
MIC (Acinetobacter baumannii [40]): 3 ng/mL
fractional inhibitory concentration index (FICI) (Escherichia coli [41]): 0.266
